Laboratory results from patent US10647713B2 (Nimbus Lakshmi, Inc., priority 2016, dated 2020).

target: human TYK2 (JH2domain-pseudokinase) (Homo sapiens (Human), UniProt P29597); experiment: TYK2 JH2 Domain Binding Assay (KINOMEscan, DiscoveRx); details: 11-point dilution, duplicate
Summary of the method: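 TYK2 JH2 (G556–D888)–NFkB DBD fusion, DNA-tagged, from HEK293 extracts (<0.1 nM) competed against immobilised biotinylated ligand for 1 h at room temperature, 0.9% DMSO. Bead-retained kinase quantified by qPCR; Kd from 11-point 3-fold series (top 30,000 nM, duplicate), Hill fit with slope −1.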

human TYK2 (JH2domain-pseudokinase), sequence (P29597 556-888): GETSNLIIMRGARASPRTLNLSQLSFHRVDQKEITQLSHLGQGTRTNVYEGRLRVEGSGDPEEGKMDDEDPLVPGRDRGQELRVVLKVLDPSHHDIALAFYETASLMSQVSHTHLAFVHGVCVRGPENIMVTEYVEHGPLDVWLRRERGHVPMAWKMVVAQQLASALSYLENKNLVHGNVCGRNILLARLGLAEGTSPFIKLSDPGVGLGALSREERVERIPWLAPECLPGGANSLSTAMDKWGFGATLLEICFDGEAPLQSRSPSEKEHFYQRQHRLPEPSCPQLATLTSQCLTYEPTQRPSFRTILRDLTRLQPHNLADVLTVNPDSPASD

Kd	Compound
< 0.1 nM	Cc1c(-c2ccc(Nc3cc(Nc4cc5n(n4)CCOC5)nc4[nH]c(C(F)F)nc34)c(S(C)(=O)=O)c2)cnn1C [I-491, 2-(difluoromethyl)-N5-(6,7-dihydro-4H-pyrazolo[5,1-c][1,4]oxazin-2-yl)-N7-(4-(1,5-dimethyl-1H-pyrazol-4-yl)-2-(methylsulfonyl)phenyl)-3H-imidazo[4,5-b]pyridine-5,7-diamine]
0.1 to 0.5 nM	Cc1cnc(-c2ccc(Nc3cc(NC(=O)C4CC4)nc4[nH]c(C(F)F)nc34)c(N(C)S(C)(=O)=O)c2)n1C [I-169, N-(2-(difluoromethyl)-7-((4-(1,5-dimethyl-1H-imidazol-2-yl)-2-(N-methylmethylsulfonamido)phenyl)amino)-3H-imidazo[4,5-b]pyridin-5-yl)cyclopropanecarboxamide]
0.1 to 0.5 nM	COc1c(Nc2cc(Nc3ccc(N4CC[C@H](OC)C4)c(C#N)n3)nc3[nH]c(C(F)F)nc23)cccc1-c1nnn(C)n1 [I-39, (S)-6-((2-(difluoromethyl)-7-((2-methoxy-3-(2-methyl-2H-tetrazol-5-yl)phenyl)amino)-3H-imidazo[4,5-b]pyridin-5-yl)amino)-3-(3-methoxypyrrolidin-1-yl)picolinonitrile]
0.1 to 0.5 nM	Cc1nc2c(Nc3ccc(F)cc3S(C)(=O)=O)cc(Nc3ccc4c(n3)CCOC4)nc2[nH]1 [I-644]
0.5 to 1 nM	COc1c(Nc2cc(Nc3ccc4c(n3)C(F)(F)CC4)nc3[nH]c(C)nc23)cccc1-c1cnn(C)n1 [I-629, N5-(7,7-difluoro-6,7-dihydro-5H-cyclopenta[b]pyridin-2-yl)-N7-(2-methoxy-3-(2-methyl-2H-1,2,3-triazol-4-yl)phenyl)-2-methyl-3H-imidazo[4,5-b]pyridine-5,7-diamine]
1 to 10 nM	Cc1cn(C)nc1-c1ccc(Nc2cc(NC(=O)[C@@H]3CC3(C)C)nc3[nH]c(C(F)F)nc23)c(S(C)(=O)=O)c1 [I-459, (R)—N-(2-(difluoromethyl)-7-((4-(1,4-dimethyl-1H-pyrazol-3-yl)-2-(methylsulfonyl)phenyl)amino)-3H-imidazo[4,5-b]pyridin-5-yl)-2,2-dimethylcyclopropane-1-carboxamide]
0.1 to 0.5 nM	Cc1nc2c(Nc3ccc(-c4ccc(C)o4)cc3S(C)(=O)=O)cc(NC(=O)C3CC3)nc2[nH]1 [I-419, N-(2-methyl-7-((4-(5-methylfuran-2-yl)-2-(methylsulfonyl)phenyl)amino)-3H-imidazo[4,5-b]pyridin-5-yl)cyclopropanecarboxamide]
0.5 to 1 nM	COCCCc1csc(-c2ccc(Nc3cc(NC(=O)C4CC4)nc4[nH]c(C(F)F)nc34)c(S(C)(=O)=O)c2)n1 [I-393]
1 to 10 nM	COc1c(Nc2cc(Nc3cnc(C)c(C#N)n3)nc3[nH]c(C(F)F)nc23)cccc1-c1nnn(C)n1 [I-38, 6-((2-(difluoromethyl)-7-((2-methoxy-3-(2-methyl-2H-tetrazol-5-yl)phenyl)amino)-3H-imidazo[4,5-b]pyridin-5-yl)amino)-3-methylpyrazine-2-carbonitrile]
0.1 to 0.5 nM	Cc1nc2c(Nc3ccc(-c4cnn(C)c4)cc3N(C)S(C)(=O)=O)cc(NC(=O)[C@@H]3C[C@@H]3F)nc2[nH]1 [I-268, (1S,2S)-2-fluoro-N-(2-methyl-7-((4-(1-methyl-1H-pyrazol-4-yl)-2-(N-methylmethylsulfonamido)phenyl)amino)-3H-imidazo[4,5-b]pyridin-5-yl)cyclopropane-1-carboxamide]
> 10 nM	Cc1nc2c(Nc3ccc(C4=NC(C)(C)CS4)cc3S(C)(=O)=O)cc(NC(=O)[C@@H]3CC3(F)F)nc2[nH]1 [I-485, (S)—N-(7-((4-(4,4-dimethyl-4,5-dihydrothiazol-2-yl)-2-(methylsulfonyl)phenyl)amino)-2-methyl-3H-imidazo[4,5-b]pyridin-5-yl)-2,2-difluorocyclopropane-1-carboxamide]
0.5 to 1 nM	COc1c(Nc2cc(Nc3ccc4c(n3)CCOC4)nc3[nH]c(C(F)F)nc23)cccc1-c1cnn(C)n1 [I-646]
0.5 to 1 nM	CP(C)(=O)c1cc(C2CCOCC2)ccc1Nc1cc(NC(=O)C2CC2)nc2[nH]c(C(F)F)nc12 [I-408, N-(2-(difluoromethyl)-7-((2-(dimethylphosphoryl)-4-(tetrahydro-2H-pyran-4-yl)phenyl)amino)-3H-imidazo[4,5-b]pyridin-5-yl)cyclopropanecarboxamide]
< 0.1 nM	Cc1nc2c(Nc3ccc(-c4cc(C)n(C)n4)cc3S(C)(=O)=O)cc(NC(=O)C3CC3)nc2[nH]1 [I-217, N-(7-((4-(1,5-dimethyl-1H-pyrazol-3-yl)-2-(methylsulfonyl)phenyl)amino)-2-methyl-3H-imidazo[4,5-b]pyridin-5-yl)cyclopropanecarboxamide]
1 to 10 nM	Cc1nc2c(Nc3ccc([C@@H]4CCCCO4)cc3S(C)(=O)=O)cc(NC(=O)[C@@H]3CC3(F)F)nc2[nH]1 [I-279, (S)-2,2-difluoro-N-(2-methyl-7-((2-(methylsulfonyl)-4-((S)-tetrahydro-2H-pyran-2-yl)phenyl)amino)-3H-imidazo[4,5-b]pyridin-5-yl)cyclopropane-1-carboxamide]
1 to 10 nM	CS(=O)(=O)c1cc(C2CCOCC2)ccc1Nc1cc(NC(=O)[C@H]2CC2(F)F)nc2[nH]c(C(F)F)nc12 [I-294, (R)—N-(2-(difluoromethyl)-7-((2-(methylsulfonyl)-4-(tetrahydro-2H-pyran-4-yl)phenyl)amino)-3H-imidazo[4,5-b]pyridin-5-yl)-2,2-difluorocyclopropane-1-carboxamide]
0.1 to 0.5 nM	Cc1nn(C)cc1-c1ccc(Nc2cc(NC(=O)C3CC3)nc3[nH]c(C(F)F)nc23)c(N(C)S(C)(=O)=O)c1 [I-197, N-(2-(difluoromethyl)-7-((4-(1,3-dimethyl-1H-pyrazol-4-yl)-2-(N-methylmethylsulfonamido)phenyl)amino)-3H-imidazo[4,5-b]pyridin-5-yl)cyclopropanecarboxamide]
0.1 to 0.5 nM	Cc1nc2c(Nc3ccc(-c4cn(C)cn4)cc3N(C)S(C)(=O)=O)cc(NC(=O)C3CC3)nc2[nH]1 [I-156, N-(2-methyl-7-((4-(1-methyl-1H-imidazol-4-yl)-2-(N-methylmethylsulfonamido)phenyl)amino)-3H-imidazo[4,5-b]pyridin-5-yl)cyclopropanecarboxamide]
> 10 nM	COc1c(Nc2cc(NC(=O)C3CC3)nc3[nH]c(C(F)F)nc23)ccc(-c2nn(C)cc2C)c1F [I-556, N-(2-(difluoromethyl)-7-((4-(1,4-dimethyl-1H-pyrazol-3-yl)-3-fluoro-2-methoxyphenyl)amino)-3H-imidazo[4,5-b]pyridin-5-yl)cyclopropanecarboxamide]
1 to 10 nM	COc1c(Nc2cc(Nc3ccc(C(C)C)c(C#N)n3)nc3[nH]c(C(F)F)nc23)cccc1-c1nnn(C)n1 [I-42, 6-((2-(difluoromethyl)-7-((2-methoxy-3-(2-methyl-2H-tetrazol-5-yl)phenyl)amino)-3H-imidazo[4,5-b]pyridin-5-yl)amino)-3-isopropylpicolinonitrile]
1 to 10 nM	CC1(C)COC(c2ccc(Nc3cc(NC(=O)[C@@H]4C[C@@H]4F)nc4[nH]c(C(F)F)nc34)c(S(C)(=O)=O)c2)=N1 [I-428, (1S,2S)—N-(2-(difluoromethyl)-7-((4-(4,4-dimethyl-4,5-dihydrooxazol-2-yl)-2-(methylsulfonyl)phenyl)amino)-3H-imidazo[4,5-b]pyridin-5-yl)-2-fluorocyclopropane-1-carboxamide]
1 to 10 nM	COc1c(Nc2cc(Nc3ccc(C)cn3)nc3[nH]c(C)nc23)cccc1-c1nnn(C)n1 [I-101, N7-(2-methoxy-3-(2-methyl-2H-tetrazol-5-yl)phenyl)-2-methyl-N5-(5-methylpyridin-2-yl)-3H-imidazo[4,5-b]pyridine-5,7-diamine]
0.5 to 1 nM	CN(c1cc(-c2cnn(C)c2)ccc1Nc1cc(NC(=O)C2CC2(F)F)nc2[nH]c(C(F)F)nc12)S(C)(=O)=O (centres unmarked) [I-385, N-(2-(difluoromethyl)-7-((4-(1-methyl-1H-pyrazol-4-yl)-2-(N-methylmethylsulfonamido)phenyl)amino)-3H-imidazo[4,5-b]pyridin-5-yl)-2,2-difluorocyclopropane-1-carboxamide]

Compound	Kd
Cc1nc2c(Nc3ccc(C4CCC(C)(C)CO4)cc3S(C)(=O)=O)cc(Nc3cnc(C)c(C)n3)nc2[nH]1 (centres unmarked) [I-601, N5-(5,6-dimethylpyrazin-2-yl)-N7-(4-(5,5-dimethyltetrahydro-2H-pyran-2-yl)-2-(methylsulfonyl)phenyl)-2-methyl-3H-imidazo[4,5-b]pyridine-5,7-diamine]	0.5 to 1 nM
Cc1ccc(Nc2cc(Nc3cnc(C)c(C)n3)nc3[nH]c(C(F)F)nc23)c(N(C)S(C)(=O)=O)c1 [I-97, N-(2-((2-(difluoromethyl)-5-((5,6-dimethylpyrazin-2-yl)amino)-3H-imidazo[4,5-b]pyridin-7-yl)amino)-5-methylphenyl)-N-methylmethanesulfonamide]	> 10 nM
Cc1ccc(Nc2cc(Nc3ccc(Cl)cc3S(C)(=O)=O)c3nc(C(F)F)[nH]c3n2)nn1 [I-185, N7-(4-chloro-2-(methylsulfonyl)phenyl)-2-(difluoromethyl)-N5-(6-methylpyridazin-3-yl)-3H-imidazo[4,5-b]pyridine-5,7-diamine]	0.1 to 0.5 nM
COc1cc(C(=O)N2CCCC2)ccc1Nc1cc(NC(=O)C2CC2)nc2[nH]c(C)nc12 [I-110, N-(7-((2-methoxy-4-(pyrrolidine-1-carbonyl)phenyl)amino)-2-methyl-3H-imidazo[4,5-b]pyridin-5-yl)cyclopropanecarboxamide]	1 to 10 nM
COc1c(Nc2cc(NC(=O)C3CC3)nc3[nH]c(C)nc23)cccc1C(=O)O [I-141, 3-((5-(cyclopropanecarboxamido)-2-methyl-3H-imidazo[4,5-b]pyridin-7-yl)amino)-2-methoxybenzoic acid]	> 10 nM
Cc1csc(-c2ccc(Nc3cc(Nc4cnc(C)c(C)n4)nc4[nH]c(C)nc34)c(S(C)(=O)=O)c2)n1 [I-464, N5-(5,6-dimethylpyrazin-2-yl)-2-methyl-N7-(2-(methylsulfonyl)-4-(4-methylthiazol-2-yl)phenyl)-3H-imidazo[4,5-b]pyridine-5,7-diamine]	0.5 to 1 nM
